The record followed here is patent US8933270B2, “Use of docasatrienes, resolvins, and their stable analogs in the treatment of airway diseases and asthma” (The Brigham and Women's Hospital, Inc., priority 2002, dated 2015).

Structures are written as SMILES.

For one assay, the system named is PMN infiltration. Briefly: Zymosan A-induced peritonitis. The format is in vivo, FVB mice. The conditions noted are these: for inhibition of PMN/leukocyte infiltration: i.v. bolus before zymosan A, lavage at 2 h. How it is done:
(§1) FIG. 5 depicts Bioimpact properties of omega-3-derived Resolvins. A) Human glioma cells: Inhibition of TNF-stimulated IL-1β transcripts DBTRG-05MG cells 10^6/ml were stimulated with 50 ng/ml of human recombinant TNFα for 16 hours to induce expression of IL-1β transcripts. Concentration dependence with COX-2 products: 17-HDHA (n), 13-HDHA (l)and di-/tri-HDHA (n). […] (insets) Results are representative of RT-PCR gels of MG cells exposed to 100 nM of 13-HDHA or 17-HDHA and graphed after normalization of the IL-1β transcripts using GAPDH. B) Influence of eicosanoids and docosanoids on fMLP-induced neutrophil migration across micovascular endothelial monolayers Neutrophils (1×10^6 cells/monolayer) were exposed to vehicle containing buffer, or indicated concentrations of aspirin-triggered LXA4 analog (closed diamonds) 5S,12,18R-triHEPE (closed squares), 17R-HDHA (closed circles) or 13-HDHA (closed triangles) for 15 minutes at 37° C. Neutrophils were then layered on HMVEC monolayers and stimulated to transmigrate by a 10^−8 M fMLP gradient for 1 hr at 37° C. Transmigration was assessed by quantitation of the neutrophil marker myeloperoxidase. Results are presented as mean±SEM number of PMN (n=8-12 monolayers per condition). C) Reduction of PMN in murine peritonitis and skin pouch peritonitis: Compounds (100 ng in 120 μL sterile saline) were injected by intravenous bolus injection into the mouse tail vein and followed by 1 ml zymosan A (1 mg/ml) into the peritoneum. Peritoneal lavages were collected (2 h) and cell types were enumerated.
Human PMN transendothelial migration was quantitated by monitoring myeloperoxidase (MPO) an azurophilic granule marker as in (34, 37). Inflammatory exudates were initiated with intrapouch injection of recombinant mouse TNFα (100 ng/pouch; R&D Systems) into dorsal air pouches (10) of 6-8 wk male FVB mice fed laboratory rodent diet 5001 (Lab Diet, Purina Mills) containing less than 0.25% arachidonic acid, 1.49% EPA and 1.86% DHA followed by ASA (500 μg) at 3.5 h and 300 μg DHA/pouch at 4 h post-TNFα injection. At 6 h (within the resolution phase), pouches were lavaged (3 ml saline) and exudate cells were enumerated Inhibition of TNFα stimulated (100 ng/pouch) PMN infiltration with i.v. tail injection of either 17R-HDHA (as prepared with COX-2 vide infra), 5S,12,18R-HEPE, or a 15-epi-LXA4 analog were determined with pouch lavages taken at 4 h. Peritonitis was performed using 6 to 8-week-old FVB male mice (Charles River Laboratories) fed laboratory Rodent Diet 5001 (Purina Mills) that were anesthetized with isoflurane, and compounds to be tested (125 μl) were administered intravenously. Zymosan A in 1 ml (1 mg/ml) was injected ˜1-1.5 min later in the peritoneum. Each test compound (100 ng/incubation, i.e. 17R-HDHA in ethanol) or vehicle alone was suspended in ˜5 μl and mixed in sterile saline 120 μl. Two hours after the intraperitoneal injections, and in accordance with the Harvard Medical Area Standing Committee on Animals protocol #02570, mice were euthanized and peritoneal lavages rapidly collected for enumeration.
Peritonitis was induced in 6 to 8 week old male FVB mice by peritoneal injection of 1 mg Zymosan A. Compounds 4,17S and 10,17S-diHDHA were injected by intravenous bolus injection, 1.5 minutes before Zymosan A treatment. Two hours after induction of peritonitis, rapid peritoneal lavages were collected and cell type enumeration was performed.

The test system of assay [1] is IL-1β transcripts in DBTRG-05MG cells. Briefly: Inhibition of TNF-stimulated IL-1β transcripts (RT-PCR). The assay is classed as cell-based, human. The conditions noted are these: 50 ng/ml TNFα, 16 h; read-out: IC50, inhibition of TNFα-induced IL-1β transcripts / cytokine expression. How it is done: as §1, with “C) Reduction of PMN in murine peritonitis and skin pouch peritonitis: Compounds (100 ng in 120 μL sterile saline) were injected by intravenous bolus injection into the mouse tail vein and followed by 1 ml zymosan A (1 mg/ml) into the peritoneum. Peritoneal lavages were collected (2 h) and cell types were enumerated.” left out
Human glioma cells DBTRG-05MG cells (ATCC) were cultured as recommended by ATCC. […] Results were analyzed using the NIH Image program (http://rsb.info.nih.gov/nih-image).

The target of another assay is T1, human recombinant COX-2 (Homo sapiens, UniProt P35354).
T1 construct: made in house; host or cells: Sf9 insect cells (microsomal fractions)
T1 sequence (P35354 18-604): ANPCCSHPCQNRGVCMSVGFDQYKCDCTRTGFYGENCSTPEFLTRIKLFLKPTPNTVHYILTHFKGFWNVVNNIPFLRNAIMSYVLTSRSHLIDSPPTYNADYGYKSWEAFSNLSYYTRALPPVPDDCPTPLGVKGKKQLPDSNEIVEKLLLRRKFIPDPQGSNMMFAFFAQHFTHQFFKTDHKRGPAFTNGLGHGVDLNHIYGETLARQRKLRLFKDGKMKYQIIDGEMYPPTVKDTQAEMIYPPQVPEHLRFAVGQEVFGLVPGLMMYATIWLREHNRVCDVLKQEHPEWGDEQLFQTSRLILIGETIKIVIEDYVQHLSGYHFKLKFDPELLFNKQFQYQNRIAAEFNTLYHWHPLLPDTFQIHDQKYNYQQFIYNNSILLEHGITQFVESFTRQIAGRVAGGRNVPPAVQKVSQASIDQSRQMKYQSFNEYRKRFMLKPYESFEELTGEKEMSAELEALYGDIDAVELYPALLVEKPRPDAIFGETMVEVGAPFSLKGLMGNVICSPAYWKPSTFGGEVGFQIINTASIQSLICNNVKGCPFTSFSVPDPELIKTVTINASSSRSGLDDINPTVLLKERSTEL
Briefly: Impact of NSAIDs on COX-2 conversion of DHA. The format is biochemical. Here is the method:
Human recombinant COX-2 was overexpressed in Sf9 insect cells (ATCC). The microsomal fractions (˜8 μl) were suspended in Tris (100 mM, pH 8.0) as in (35). ASA was incubated (˜2 mM, 37° C., 30 min) with COX-2 before addition of DHA (10 μM), or in some experiments [1-^14C]-labeled DHA (from American Radiolabeled Chemicals, Inc.), and conversions were monitored in parallel using [1^−14C]-labeled C20:4 (with ASA) (as in FIG. 2; also see text).
Incubations were extracted with deuterium-labeled internal standards (15-HETE and C20:4) for LC-MS-MS analysis as in (33) using a Finnigan LCQ liquid chromatography ion trap tandem mass spectrometer (San Jose, Calif.) equipped with a LUNA C18-2 (150×2 mm×5 μm or 100×2 mm×5 μm) column and a rapid spectra scanning UV diode array detector that monitored UV absorbance ˜0.2 min prior to samples entering the MS-MS. All intact cell incubations and in vivo exudates were stopped with 2 ml cold methanol and kept at −80° C. for >30 minutes. Samples were extracted using C18 solid phase extraction and analyzed using GC-MS (see Table 2) (Hewlett-Packard), thin layer chromatography or tandem liquid chromatography-mass spectrometry (LC-MS-MS). Also, a Chiralcel OB-H column (4.6×250 mm; J. T. Baker) was used to determine R and S alcohol configurations of monohydroxy-PUFA using isocratic mobile phase (hexane:isopropanol; 97.5:2.5, vol:vol, with a 0.6 ml/min flow rate). Detailed procedures for isolation, quantitation and structural determination of lipid-derived mediators were recently reported (36) and used here essentially as reported for elucidation of novel products.
Results are the mean±SEM, n=3. Products were extracted, identified, and quantitated using deuterium internal standards and LC-MS-MS (see Methods).

The subject of assay [2] is airway leukocyte accumulation. Briefly: OVA sensitization and aerosol challenge: lung histology and BAL leukocytes. The format is in vivo. How it is done:
To determine if PD1 and Resolvin E1 had properties of a counter-regulatory mediator during airway inflammation, physiologically relevant quantities (2, 20 or 200 ng) were administered by intravenous injection to allergen sensitized animals just prior (30 min) to aerosol challenge on 4 consecutive days. […] In conjunction with decreased airway inflammation, levels of the counter-regulatory eicosanoid LXA4 were also […] in the presence of PD1 (data not shown).
Five to seven week old male FvB mice (Charles River Laboratories, Wilmington, Mass.) were housed in isolation cages under viral antibody-free conditions. Mice were fed a standard diet (Laboratory Rodent Diet 5001, PMI Nutrition International, Richmond, Ind.) that contained no less than 4.5% total fat with 0.26% omega-3 fatty acids and <0.01% C20:4. After Harvard Medical Area IRB approval (Protocol #02570), mice were sensitized with intraperitoneal injections of ovalbumin (OVA) (Grade III; Sigma Chemical Co., St. Louis, Mo.) (10 μg) plus 1 mg aluminum hydroxide (ALUM) (J. T. Baker Chemical Co.; Phillipsburg, N.J.) as adjuvant in 0.2 ml PBS on days 0 and 7. On days 14, 15, 16 and 17, the mice received PD1 (2, 20 or 200 ng), Resolvin E1 (200 ng) (products of biogenic synthesis (Hong, Gronert et al. 2003)), or PBS with 1.6 mM CaCl2 and 1.6 mM MgCl2 (0.1 ml) by intravenous injection 30 min prior to an aerosol challenge containing either PBS or 6% OVA for 25 min/day. On day 18, 24 h after the last aerosol challenge, airway responsiveness to aerosolized methacholine (0, 20, 50 and 75 mg, 10 sec) was measured, bilateral bronchoalveolar lavage (BAL) (2 aliquots of 1 ml PBS plus 0.6 mM EDTA) was performed or tissues were harvested for histological analysis. Lung resistance was measured using a Flexivent ventilator (SciReq, Montreal, Quebec). Resistance was measured as a function of time for each animal, and peak and average values for each dose of methacholine were recorded. No BAL or histological analysis was performed on those animals undergoing airway hyper-responsiveness or lipid extraction studies.
Tissue morphometry was performed by a member (K. Haley) of the Lung Histopathology Core Laboratory at Brigham and Women's Hospital who was blinded to the experimental conditions prior to histological analyses. Three fields per slide were examined at 200× magnification for vessels, large airways and alveoli with EOS counted at 400× magnification in randomly assigned fields. Vessels were identified by perivascular smooth muscle, and large airways were identified by at least ½ their diameter either cuboidal or columnar epithelia. Measurement of inflammatory mediators was determined in cell-free BAL fluid (2000 g, 10 min) by sensitive and specific ELISAs, in tandem, for interleukin-5 (IL-5), IL-12, IL-13, PGD2 (R&D Systems, Minneapolis, Minn.), cysteinyl LTs, (Cayman Chemical Co, Ann Arbor, Mich.), and LXA4 (Neogen, Lexington, Ky.). Cells in BALF were resuspended in PBS, enumerated by hemocytometer, and concentrated onto microscope slides by cytocentrifuge (STATspin) (265 g). Cells were stained with a Wright-Giemsa stain (Sigma Chemical Co.) to determine leukocyte differentials (after counting ≧200 cells).

On to `CCC(O)/C=C/C=C\C/C=C\C/C=C\C=C\[C@@H](O)CCCC(=O)O` (mixture of isomers) [5S,18(+/−)-diHEPA], for which the “potency relative to comparator at equal dose” value in the assay with PMN infiltration (PMN/leukocyte infiltration, FIG. 16 and FIG. 18) is on record as “equipotent to Resolvin E1”. The “inhibition of PMN/leukocyte infiltration” value in the assay with PMN infiltration is on record as “downregulation of PMN infiltration”; in the assay on PMN infiltration (listed as 5S,18(+/−)-diHEPE) it was “reduction of neutrophil infiltration”. Turning to `CC/C=C\C[C@H](O)/C=C/C=C\C=C\[C@@H](O)C/C=C\CC#CCCC(=O)O` [4,5-dehydro 10,17S-dihydroxy DHA], in the assay on PMN infiltration (100 ng dose), the “inhibition of the PMN infiltration” value is on record as 40%. Regarding `CC/C=C\C[C@H](O)/C=C/C=C\CC(O)\C=C/C=C/C=C/[C@@H](O)CCC(=O)O` (stereo partly drawn) [4S,11,17R-triHDHA, 4S,11,17S,-trihydroxy-docosa-5E,7E,9Z,13Z,15E,19Z-hexaenoic acid], the “inhibition of PMN/leukocyte infiltration” value with PMN infiltration was “potent inhibitor”.

As for `CC/C=C\C[C@@H](O)/C=C/C=C\C/C=C\C=C\[C@@H](O)C/C=C\CCC(=O)O` [7S,17R-diHDHA, 7S,17R-dihydroxy-docosa-4Z,8E,10Z,13Z,15E,19Z-hexaenoic acid], in the assay with PMN infiltration, the “inhibition of PMN/leukocyte infiltration” value is recorded as “potent inhibitor”.

As to `CC/C=C\C/C=C\C=C\C(O)C/C=C\C/C=C\C/C=C\CCC(=O)O` (stereo not shown) [13-HDHA, 13-hydroxy-DHA], the IC50 in assay [1] was approximately 0.05 nM.

For orientation: inhibition means the share of the control response that was lost under treatment. As to `CC(=O)Nc1ccc(O)cc1` [Acetaminophen, acetaminophen], on human recombinant COX-2 (NSAID incubated 30 min with COX-2, ASA 2 mM, indomethacin 200 μM, acetaminophen 500 μM, NS398 100 μM, mean±SEM, n=3), the “% Increase of 17-HDHA” value is listed as 0.0%. The inhibition at 500 µM at human recombinant COX-2 (read-out: % Inhibition of 13-HDHA) came out at 87.7 ± 4.3%. Moreover, the “formation of 17R-HDHA from DHA by NSAID-treated COX-2” value at human recombinant COX-2 (recombinant COX-2 incubations) is given as “did not give appreciable amounts of 17R-HDHA”. In the case of `CC[C@@H](O)/C=C/C=C\C[C@@H](O)/C=C/C=C/C=C\[C@@H](O)CCCC(=O)O` [Resolvin E1, 5S,12R,18R-trihydroxy-6Z,8E,10E,14Z,16E-eicosapentaenoic acid], the “inhibition of PMN/leukocyte infiltration” value in the assay on PMN infiltration is “reduction of neutrophil infiltration”. Besides, the “eosinophil and lymphs (FIG. 25)” value in assay [2] (10,17-DT 20 ng and 200 ng, Resolvin E1 200 ng) is on record as “reduction”. For the same compound, the “total leukocytes, EOS and Lymphs in BAL fluid” value in assay [2] (PD1 2, 20 or 200 ng, Resolvin E1 200 ng i.v.) is given as “decreased”.
